Laboratory results reported in patent publication US20170002421A1, “METHODS AND ASSAYS FOR DETERMINING REDUCED BRCA1 PATHWAY FUNCTION IN A CANCER CELL” (THE GENERAL HOSPITAL CORPORATION, priority 2013, published 2017).

How the values were obtained:
[1] = clinical use, literature refs 34-38; cited from earlier work
[2] = tested on: breast cancer cell line panel; test: Pharmacologic inhibition assay (Crystal Violet, mean percent viability); type: cell-based, human
Protocol: All cell lines were obtained and maintained as previously described^15. Independent pharmacologic inhibition assays were conducted in triplicate for each cell line. Cells were seeded at 20,000 per well in a 24-well plate. After 24 hours, cells were treated in triplicate with indicated concentrations of: DMSO, temozolomide (SIGMA ALDRICH™, T2577), or AZD-2281 (SELLECK CHEMICALS™, S1060). After five days of incubation, cells were fixed in 4% formaldehyde and stained with 1% Crystal Violet (SIGMA ALDRICH™, C0775) for ten minutes at room temperature. Cells were then washed to remove unincorporated dye and plates were inverted to dry overnight. Incorporated dye was extracted with 10% acetic acid and OD595 measurements were obtained within a linear range. Treated cells were normalized to the vehicle-treated control to obtain mean percent viability.

Compound | crossing the blood/brain barrier [1] | inhibition (viability) in combination ([2]; 40 nM olaparib combined with 100 uM temozolomide, breast cancer cell line panel (FIG. 4A, lower panel)) | reduction in viability, single administration ([2]; either drug alone, seven of the tested cell lines with Garnett et al. expression data (FIG. 4B, top and middle panel)) | inhibitory effects (viability) ([2]; olaparib alone, 40 nM, five days incubation, breast cancer cell line panel (FIG. 4A, middle panel))
Cn1nnc2c(C(N)=O)ncn2c1=O [temozolomide] | can cross the blood/brain barrier | – | – | –
O=C(c1cc(Cc2n[nH]c(=O)c3ccccc23)ccc1F)N1CCN(C(=O)C2CC2)CC1 [olaparib] | evidence of crossing the blood/brain barrier | exerts inhibition | did not demonstrate a significant reduction in viability | does not demonstrate inhibitory effects alone
